Measurements published in patent publication US20250235460A1, “COMBINATION THERAPY USING GLUCOSE-DEPENDENT INSULINOTROPIC POLYPEPTIDE RECEPTOR ANTAGONIST COMPOUNDS AND GLP-1 RECEPTOR AGONIST COMPOUNDS” (Pfizer Inc., priority 2024, published 2025).
Where a name gives a salt, the structure may show the parent alone. Read-outs that look alike come from different tables or passages of the source.

Experiments:
human GLP-1R [1] = target: human GLP-1R (Homo sapiens, UniProt P43220, G168S); assay: CHO GLP-1R Clone H6 cAMP HTRF agonist assay (Assay 1, high receptor density); format: cell-based; settings: for EC50: CHO GLP-1R clone H6, cAMP HTRF, geometric mean; for Emax: read-out: Assay 1 Emax (%)
Chain of human GLP-1R (Homo sapiens, UniProt P43220, G168S) (P43220 24-463 G168S): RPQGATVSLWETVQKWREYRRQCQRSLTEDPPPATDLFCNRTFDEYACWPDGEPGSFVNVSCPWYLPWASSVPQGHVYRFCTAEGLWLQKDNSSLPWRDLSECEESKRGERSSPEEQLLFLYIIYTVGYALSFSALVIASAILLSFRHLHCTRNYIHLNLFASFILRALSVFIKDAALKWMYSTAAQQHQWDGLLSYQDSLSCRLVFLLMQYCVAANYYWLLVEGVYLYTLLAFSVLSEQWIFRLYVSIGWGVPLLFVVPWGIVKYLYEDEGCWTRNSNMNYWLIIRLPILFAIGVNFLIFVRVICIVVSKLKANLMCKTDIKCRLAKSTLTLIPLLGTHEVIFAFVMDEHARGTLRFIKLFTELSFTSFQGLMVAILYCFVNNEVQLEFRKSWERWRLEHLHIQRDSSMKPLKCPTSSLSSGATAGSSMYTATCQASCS
Outline: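 Averaging differs by parameter: a geometric mean for EC50 and an arithmetic mean for Emax, each over the stated replicate number.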

human GLP-1R [2] = target: human GLP-1R (Homo sapiens, UniProt P43220, L260F); assay: CHO GLP-1R Clone C6 cAMP HTRF agonist assay (Assay 2, low receptor density); format: cell-based; settings: for EC50: CHO GLP-1R clone C6, cAMP HTRF, geometric mean; for Emax: CHO GLP-1R clone C6, arithmetic mean, relative to saturating GLP-1 (1 μM)
Chain of human GLP-1R (Homo sapiens, UniProt P43220, L260F) (P43220 24-463 L260F): as the sequence (P43220 24-463 G168S) above, with S145G, L237F counted along it
Description: In Table 5 and Table 6, assay data are presented to two (2) significant figures as the geometric mean (EC50s) and arithmetic mean (Emax) based on the number of replicates listed (Number). A blank cell means there was no data for that Example or the Emax was not calculated.

[3] = CHO GLP-1R clone H6, arithmetic mean, relative to saturating GLP-1 (1 μM)

Row | EC50 (human GLP-1R [1]) | Emax (human GLP-1R [1]; [3]) | EC50 (human GLP-1R [2]) | Emax (human GLP-1R [2]) | SMILES | Emax (human GLP-1R [1])
1 | 8.1 nM | 74% | 220 nM | 93% | COC[C@@H]1C[C@H]1Cn1c(CN2CCC(c3cccc(OCc4ccc(Cl)cc4F)n3)CC2)nc2ccc(C(=O)O)cc21 [Compound 197B, 2-[(4-{6-[(4-chloro-2-fluorobenzyl)oxy]pyridin-2-yl}piperidin-1-yl)methyl]-1-{[(1R,2R)-2-(methoxymethyl)cyclopropyl]methyl}-1H-benzimidazole-6-carboxylic acid] | 
2 | > 15000 nM | 98% | > 20000 nM |  | O=C(O)c1cc2c(cn1)nc(CN1CCC(c3cccc(OCc4ccc(Cl)cc4F)n3)CC1)n2C[C@@H]1CCO1 [Compound 203B, 2-[(4-{6-[(4-chloro-2-fluorobenzyl)oxy]pyridin-2-yl}piperidin-1-yl)methyl]-1-[(2S)-oxetan-2-ylmethyl]-1H-imidazo[4,5-c]pyridine-6-carboxylic acid] | 
3 | 5.7 nM | 67% | 100 nM | 79% | COCCn1c(CN2CCC(c3cccc(OCc4ccc(Cl)cc4F)n3)CC2)nc2cnc(C(=O)O)cc21 [Compound 205B, 2-[(4-{6-[(4-chloro-2-fluorobenzyl)oxy]pyridin-2-yl}piperidin-1-yl)methyl]-1-(2-methoxyethyl)-1H-imidazo[4,5-c]pyridine-6-carboxylic acid] | 
4 | 38 nM |  | 760 nM | 91% | Cn1c(CN2CCC(c3cccc(OCc4ccc(Cl)cc4F)n3)CC2)nc2cc(F)c(C(=O)O)cc21 [Compound 206B, 2-[(4-{6-[(4-chloro-2-fluorobenzyl)oxy]pyridin-2-yl}piperidin-1-yl)methyl]-5-fluoro-1-methyl-1H-benzimidazole-6-carboxylic acid] | 
5 | 1.7 nM | 82% | 41 nM | 99% | COCCn1c(CN2CCC(c3cccc(OCc4ccc(Cl)cc4F)n3)CC2)nc2ncc(C(=O)O)c(C)c21 [Compound 208B, 2-[(4-{6-[(4-chloro-2-fluorobenzyl)oxy]pyridin-2-yl}piperidin-1-yl)methyl]-1-(2-methoxyethyl)-7-methyl-1H-imidazo[4,5-b]pyridine-6-carboxylic acid] | 
6 | 0.47 nM | 77% | 5 nM | 94% | O=C(O)c1ccc2nc(CN3CCC(c4cccc(OCc5ccc(Cl)cc5F)n4)CC3)n(C[C@H]3CCO3)c2n1 [Compound 216B, 2-[(4-{6-[(4-chloro-2-fluorobenzyl)oxy]pyridin-2-yl}piperidin-1-yl)methyl]-3-[(2R)-oxetan-2-ylmethyl]-3H-imidazo[4,5-b]pyridine-5-carboxylic acid] | 
7 | 1.5 nM | 73% | 24 nM | 91% | COCCn1c(CN2CCC(c3cccc(OCc4ccc(C)cc4)n3)CC2)nc2ccc(C(=O)O)cc21 [Compound 217B, Ammonium 2-((4-(6-((4-Methylbenzyl)oxy)pyridin-2-yl)piperidin-1-yl)methyl)-1-(2-methoxyethyl)-1H-benzo[d]imidazole-6-carboxylate] | 
8 | 1.5 nM |  | 29 nM | 95% | COCCn1c(CN2CCC(c3cccc(OCc4ccc(C#N)c(C)c4)n3)CC2)nc2ccc(C(=O)O)cc21 [Compound 218B, 2-((4-(6-((4-cyano-3-methylbenzyl)oxy)pyridin-2-yl)piperidin-1-yl)methyl)-1-(2-methoxyethyl)-1H-benzo[d]imidazole-6-carboxylic acid] | 
9 | 0.3 nM | 93% | 3.8 nM | 93% | COCCn1c(CN2CCC(c3cccc(OCc4cc(F)c(Cl)cc4F)n3)CC2)nc2ccc(C(=O)O)cc21 [Compound 219B, 2-((4-(6-((4-chloro-2,5-difluorobenzyl)oxy)pyridin-2-yl)piperidin-1-yl)methyl)-1-(2-methoxyethyl)-1H-benzo[d]imidazole-6-carboxylic acid] | 
10 | 0.33 nM | 82% | 13 nM | 110% | COCCn1c(CN2CCC(c3cccc(OCc4c(F)cc(Cl)cc4F)n3)CC2)nc2ccc(C(=O)O)cc21 [Compound 220B, 2-((4-(6-((4-chloro-2,6-difluorobenzyl)oxy)pyridin-2-yl)piperidin-1-yl)methyl)-1-(2-methoxyethyl)-1H-benzo[d]imidazole-6-carboxylic acid] | 

More lines, now with the values behind:

Row | SMILES | EC50 (human GLP-1R [1]) | Emax (human GLP-1R [1]; [3]) | EC50 (human GLP-1R [2]) | Emax (human GLP-1R [2]) | Emax (human GLP-1R [1])
11 | Cn1c(CN2CCC(c3cccc(OCc4ccc(Cl)cc4F)n3)CC2)nc2ccc(C(=O)O)nc21 [Compound 199B, 2-((4-(6-((4-Chloro-2-fluorobenzyl)oxy)pyridin-2-yl)piperidin-1-yl)methyl)-3-methyl-3H-imidazo[4,5-b]pyridine-5-carboxylic acid hydrochloride] | 1.7 nM |  | 45 nM | 83% | 67%
12 | O=C(O)c1cc2c(cn1)nc(CN1CCC(c3cccc(OCc4ccc(Cl)cc4F)n3)CC1)n2Cc1ncco1 [Compound 204B, 2-[(4-{6-[(4-chloro-2-fluorobenzyl)oxy]pyridin-2-yl}piperidin-1-yl)methyl]-1-(1,3-oxazol-2-ylmethyl)-1H-imidazo[4,5-c]pyridine-6-carboxylic acid] | 18 nM | 88% | 400 nM | 100% | 
13 | COCCn1c(CN2CCC(c3cccc(OCc4ccc(Cl)cc4F)n3)CC2)nc2ncc(C(=O)O)nc21 [Compound 207B, 2-[(4-{6-[(4-chloro-2-fluorobenzyl)oxy]pyridin-2-yl}piperidin-1-yl)methyl]-1-(2-methoxyethyl)-1H-imidazo[4,5-b]pyrazine-6-carboxylic acid] | 5.7 nM | 78% | 130 nM | 94% | 
14 | Cc1nc2nc(CN3CCC(c4cccc(OCc5ccc(Cl)cc5F)n4)CC3)n(C)c2cc1C(=O)O [Compound 209B, 2-[(4-{6-[(4-chloro-2-fluorobenzyl)oxy]pyridin-2-yl}piperidin-1-yl)methyl]-1,5-dimethyl-1H-imidazo[4,5-b]pyridine-6-carboxylic acid] | 7 nM | 59% | 190 nM | 80% | 
15 | COCCn1c(CN2CCC(c3cccc(OCc4ccc(C#N)cc4)n3)CC2)nc2cc(F)c(C(=O)O)cc21 [Compound 211B, 2-[(4-{6-[(4-cyanobenzyl)oxy]pyridin-2-yl}piperidin-1-yl)methyl]-5-fluoro-1-(2-methoxyethyl)-1H-benzimidazole-6-carboxylic acid] | 50 nM | 81% | 870 nM | 83% | 
16 | C[C@H]1CN(c2cccc(OCc3ccc(C#N)cc3F)n2)CCN1Cc1nc2ccc(C(=O)O)nc2n1Cc1ncco1 [Compound 215B, 2-{[(2S)-4-{6-[(4-cyano-2-fluorobenzyl)oxy]pyridin-2-yl}-2-methylpiperazin-1-yl]methyl}-3-(1,3-oxazol-2-ylmethyl)-3H-imidazo [4,5-b]pyridine-5-carboxylic acid] | 3.4 nM | 73% |  | 89% | 
17 | Cn1c(CN2CCC(c3cccc(OCc4ccccc4)n3)CC2)nc2ccc(C(=O)O)cc21 [Compound 221B, 2-((4-(6-(Benzyloxy)pyridin-2-yl)piperidin-1-yl)methyl)-1-methyl-1H-benzo[d]imidazole-6-carboxylic acid] | 3.4 nM | 86% | 23 nM | 110% | 
